# Results taken from patent publication US8952024B2, “Herbicidal pyrimidone derivatives” (E I du Pont de Nemours and Company, priority 2009, dated 2015).
# What was measured:
# Type in all cases: in vivo
# [1] = test system: Surinam grass (Brachiaria decumbens); test: Test B pre-/postemergence plant response; conditions: Postemergence
# Outline: (§1)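 Visually scored on a 0 to 100 scale after 13 to 15 days in greenhouse versus controls. Treatments were preemergence on seeded loam/sand soil and postemergence on 1- to 4-leaf plants.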
# [2] = test system: blackgrass (Alopecurus myosuroides); test: Test B pre-/postemergence plant response; conditions: Postemergence
# Outline: as §1
# corn (Zea mays) = test: Test B pre-/postemergence plant response; conditions: Postemergence
# Outline: as §1
# [3] = test system: giant foxtail (Setaria faberii); test: Test B pre-/postemergence plant response; conditions: Postemergence
# Outline: as §1
# [4] = test system: goosegrass (Eleusine indica); test: Test B pre-/postemergence plant response; conditions: Postemergence
# Outline: as §1
# [5] = test system: green foxtail (Setaria viridis); test: Test B pre-/postemergence plant response; conditions: Postemergence
# Outline: as §1
# [6] = test system: johnsongrass (Sorghum halepense); test: Test B pre-/postemergence plant response; conditions: Postemergence
# Outline: as §1
# [7] = test system: lambsquarters (Chenopodium album); test: Test B pre-/postemergence plant response; conditions: Postemergence
# Outline: as §1
# [8] = test system: pigweed (Amaranthus retroflexus); test: Test B pre-/postemergence plant response; conditions: Postemergence
# Outline: as §1
# [9] = test system: ragweed (common ragweed, Ambrosia elatior); test: Test B pre-/postemergence plant response; conditions: Postemergence
# Outline: as §1
# wild oat (Avena fatua) = test: Test B pre-/postemergence plant response; conditions: Postemergence
# Outline: as §1
# rice (Oryza sativa) = test: Test B flooded paddy test; conditions: Oryza sativa
# Outline: (§2)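 Greenhouse-held for 13 to 15 days, treated pots were compared visually with controls and scored 0–100 (0, no effect). Treatment had been made into paddy water kept at 3 cm above the soil, with plants at the 2-leaf stage.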
# [10] = test system: umbrella sedge (Cyperus difformis); test: Test B flooded paddy test; conditions: Cyperus difformis, 360 h
# Outline: as §2
smiles,measurement,setting,value
"COc1ccc(-n2c(-c3ccccc3)ncc(C(=O)C3=C(O)CCCC3=O)c2=O)cc1 [Compound 4, 5-[(2-hydroxy-6-oxo-cyclohexen-1-yl)carbonyl]-3-(4-methoxyphenyl)-2-phenyl-4(3H)-pyrimidinone]",Surinam Grass plant response rating,"[1]; 250 g ai/ha, scale 0 to 100",90
same,pest or weed control at 31 g/ha,"[1]; Urochloa decumbens, post-emergence, 31 g ai/ha, scale 0 to 100 (0 no effect, 100 complete control), read-out: Plant response rating, Surinam Grass",60%
same,pest or weed control at 62 g/ha,"[1]; Urochloa decumbens, post-emergence, 62 g ai/ha, scale 0 (no effect) to 100 (complete control), 13 to 15 days, read-out: Plant response rating, Surinam Grass",70%
same,pest or weed control at 125 g/ha,"[1]; Urochloa decumbens, post-emergence, 125 g ai/ha, visual rating after 13 to 15 days, scale 0 (no effect) to 100 (complete control)",75%
same,pest or weed control at 31 g/ha,"[2]; Alopecurus myosuroides, post-emergence, 360 h, 31 g ai/ha, scale 0 to 100 (0 no effect, 100 complete control), read-out: Plant response rating, Blackgrass",10%
same,pest or weed control at 62 g/ha,"[2]; Alopecurus myosuroides, post-emergence, 360 h, 62 g ai/ha, scale 0 (no effect) to 100 (complete control), 13 to 15 days, read-out: Plant response rating, Blackgrass",20%
same,pest or weed control at 125 g/ha,"[2]; Alopecurus myosuroides, post-emergence, 360 h, 125 g ai/ha, visual rating after 13 to 15 days, scale 0 (no effect) to 100 (complete control)",30%
same,Blackgrass plant response rating,"[2]; 250 g ai/ha, scale 0 to 100",50
same,Corn plant response rating,"corn (Zea mays); 250 g ai/ha, scale 0 to 100",85
same,"Corn plant response rating (crop injury, 0 = no effect, 100 = complete kill) at 31 g/ha","corn (Zea mays); Zea mays, post-emergence, 31 g ai/ha, scale 0 to 100 (0 no effect, 100 complete control)",10%
same,"Corn plant response rating (crop injury, 0 = no effect, 100 = complete kill) at 62 g/ha","corn (Zea mays); Zea mays, post-emergence, 62 g ai/ha, scale 0 (no effect) to 100 (complete control), 13 to 15 days",25%
same,"Corn plant response rating (crop injury, 0 = no effect, 100 = complete kill) at 125 g/ha","corn (Zea mays); Zea mays, post-emergence, 125 g ai/ha, visual rating after 13 to 15 days, scale 0 (no effect) to 100 (complete control)",50%
same,"Foxtail, Giant plant response rating","[3]; 250 g ai/ha, scale 0 to 100",100
same,pest or weed control at 31 g/ha,"[3]; Setaria faberi, post-emergence, 31 g ai/ha, scale 0 to 100 (0 no effect, 100 complete control), read-out: Plant response rating, Foxtail, Giant",80%
same,pest or weed control at 62 g/ha,"[3]; Setaria faberi, post-emergence, 62 g ai/ha, scale 0 (no effect) to 100 (complete control), 13 to 15 days, read-out: Plant response rating, Foxtail, Giant",98%
same,pest or weed control at 125 g/ha,"[3]; Setaria faberi, post-emergence, 125 g ai/ha, visual rating after 13 to 15 days, scale 0 (no effect) to 100 (complete control)",98%
same,pest or weed control at 31 g/ha,"[4]; Eleusine indica, post-emergence, 31 g ai/ha, scale 0 to 100 (0 no effect, 100 complete control), read-out: Plant response rating, Goosegrass",25%
same,pest or weed control at 62 g/ha,"[4]; Eleusine indica, post-emergence, 62 g ai/ha, scale 0 (no effect) to 100 (complete control), 13 to 15 days, read-out: Plant response rating, Goosegrass",75%
same,pest or weed control at 125 g/ha,"[4]; Eleusine indica, post-emergence, 125 g ai/ha, visual rating after 13 to 15 days, scale 0 (no effect) to 100 (complete control)",85%
same,Goosegrass plant response rating,"[4]; 250 g ai/ha, scale 0 to 100",98
same,"Foxtail, Green plant response rating","[5]; 250 g ai/ha, scale 0 to 100",60
same,pest or weed control at 31 g/ha,"[5]; Setaria viridis, post-emergence, 31 g ai/ha, scale 0 to 100 (0 no effect, 100 complete control), read-out: Plant response rating, Foxtail, Green",40%
same,pest or weed control at 62 g/ha,"[5]; Setaria viridis, post-emergence, 62 g ai/ha, scale 0 (no effect) to 100 (complete control), 13 to 15 days, read-out: Plant response rating, Foxtail, Green",40%
same,pest or weed control at 125 g/ha,"[5]; Setaria viridis, post-emergence, 125 g ai/ha, visual rating after 13 to 15 days, scale 0 (no effect) to 100 (complete control)",60%
same,Johnsongrass plant response rating,"[6]; 250 g ai/ha, scale 0 to 100",98
same,pest or weed control at 31 g/ha,"[6]; Sorghum halepense, post-emergence, 31 g ai/ha, scale 0 to 100 (0 no effect, 100 complete control), read-out: Plant response rating, Johnsongrass",45%
same,pest or weed control at 62 g/ha,"[6]; Sorghum halepense, post-emergence, 62 g ai/ha, scale 0 (no effect) to 100 (complete control), 13 to 15 days, read-out: Plant response rating, Johnsongrass",80%
same,pest or weed control at 125 g/ha,"[6]; Sorghum halepense, post-emergence, 125 g ai/ha, visual rating after 13 to 15 days, scale 0 (no effect) to 100 (complete control)",95%
same,pest or weed control at 31 g/ha,"[7]; Chenopodium album, post-emergence, 31 g ai/ha, scale 0 to 100 (0 no effect, 100 complete control), read-out: Plant response rating, Lambsquarters",98%
same,pest or weed control at 62 g/ha,"[7]; Chenopodium album, post-emergence, 62 g ai/ha, scale 0 (no effect) to 100 (complete control), 13 to 15 days, read-out: Plant response rating, Lambsquarters",100%
same,pest or weed control at 125 g/ha,"[7]; Chenopodium album, post-emergence, 125 g ai/ha, visual rating after 13 to 15 days, scale 0 (no effect) to 100 (complete control)",100%
same,Lambsquarters plant response rating,"[7]; 250 g ai/ha, scale 0 to 100",100
same,pest or weed control at 31 g/ha,"[8]; Amaranthus retroflexus, post-emergence, 31 g ai/ha, scale 0 to 100 (0 no effect, 100 complete control), read-out: Plant response rating, Pigweed",100%
same,pest or weed control at 62 g/ha,"[8]; Amaranthus retroflexus, post-emergence, 62 g ai/ha, scale 0 (no effect) to 100 (complete control), 13 to 15 days, read-out: Plant response rating, Pigweed",100%
same,pest or weed control at 125 g/ha,"[8]; Amaranthus retroflexus, post-emergence, 125 g ai/ha, visual rating after 13 to 15 days, scale 0 (no effect) to 100 (complete control)",100%
same,Pigweed plant response rating,"[8]; 250 g ai/ha, scale 0 to 100",100
same,pest or weed control at 31 g/ha,"[9]; Ambrosia artemisiifolia, post-emergence, 360 h, 31 g ai/ha, scale 0 to 100 (0 no effect, 100 complete control), read-out: Plant response rating, Ragweed",100%
same,pest or weed control at 62 g/ha,"[9]; Ambrosia artemisiifolia, post-emergence, 360 h, 62 g ai/ha, scale 0 (no effect) to 100 (complete control), 13 to 15 days, read-out: Plant response rating, Ragweed",100%
same,pest or weed control at 125 g/ha,"[9]; Ambrosia artemisiifolia, post-emergence, 360 h, 125 g ai/ha, visual rating after 13 to 15 days, scale 0 (no effect) to 100 (complete control)",100%
same,Ragweed plant response rating,"[9]; 250 g ai/ha, scale 0 to 100",100
same,pest or weed control at 31 g/ha,"wild oat (Avena fatua); Avena fatua, post-emergence, 31 g ai/ha, scale 0 to 100 (0 no effect, 100 complete control), read-out: Plant response rating, Oat, Wild",30%
same,pest or weed control at 62 g/ha,"wild oat (Avena fatua); Avena fatua, post-emergence, 62 g ai/ha, scale 0 (no effect) to 100 (complete control), 13 to 15 days, read-out: Plant response rating, Oat, Wild",50%
same,pest or weed control at 125 g/ha,"wild oat (Avena fatua); Avena fatua, post-emergence, 125 g ai/ha, visual rating after 13 to 15 days, scale 0 (no effect) to 100 (complete control)",50%
same,"Oat, Wild plant response rating","wild oat (Avena fatua); 250 g ai/ha, scale 0 to 100",50
same,plant injury at 250 g/ha,"rice (Oryza sativa); 250 g ai/ha, flooded paddy test, visual rating on 0 to 100 scale (0 no effect, 100 complete control) after 13 to 15 days, read-out: Plant response rating, Flood, Rice",0%
same,plant injury at 31 g/ha,"rice (Oryza sativa); Flood (flooded paddy test), 31 g ai/ha, scale of 0 to 100 where 0 is no effect and 100 is complete control, 13 to 15 days, read-out: Plant response rating, Rice",0%
same,plant injury at 62 g/ha,"rice (Oryza sativa); Flood (flooded paddy test), 62 g ai/ha, scale 0 to 100, 0 is no effect, 100 is complete control, 13 to 15 days, read-out: Plant response rating, Rice",0%
same,plant injury at 125 g/ha,"rice (Oryza sativa); Flood (flooded paddy test), 125 g ai/ha, scale 0 to 100, 0 is no effect, 100 is complete control, 13 to 15 days, read-out: Plant response rating, Rice",0%
same,pest or weed control at 250 g/ha,"[10]; 250 g ai/ha, flooded paddy test, visual rating on 0 to 100 scale (0 no effect, 100 complete control) after 13 to 15 days, read-out: Plant response rating, Flood, Sedge, Umbrella",90%
same,pest or weed control at 31 g/ha,"[10]; Flood (flooded paddy test), 31 g ai/ha, scale of 0 to 100 where 0 is no effect and 100 is complete control, 13 to 15 days, read-out: Plant response rating, Sedge, Umbrella",50%
same,pest or weed control at 62 g/ha,"[10]; Flood (flooded paddy test), 62 g ai/ha, scale 0 to 100, 0 is no effect, 100 is complete control, 13 to 15 days, read-out: Plant response rating, Sedge, Umbrella",65%
same,pest or weed control at 125 g/ha,"[10]; Flood (flooded paddy test), 125 g ai/ha, scale 0 to 100, 0 is no effect, 100 is complete control, 13 to 15 days, read-out: Plant response rating, Sedge, Umbrella",80%
